≈ marks a conversion by molar mass, not a printed value. Where a name gives a salt, the structure may show the parent alone.
Key:
[1] = system: HFF (normal human foreskin fibroblast); test: Methylene Blue Growth Inhibition assay, HFF; assay type: cell-based; conditions: 72 h, HFF normal cells, 3 days
Procedure: (§1) Cellular Assays: Methylene Blue Growth Inhibition assay
(§2) Tumor cell lines used in this assay were BT474 (human breast carcinoma) and LNCaP (lymph node metastasis of prostate cancer). HFF (normal human foreskin fibroblast) was also included. All cell lines were cultured in RPMI 1640 media (Invitrogen Corporation 22400-071) containing 10% Fetal Bovine Serum (FBS) at 37° C. in a humidified 5% CO2 incubator. Cells were harvested using trypsin/EDTA, counted using a hemacytometer and plated in 96-well tissue culture plates (Costar 35-3075), 100 uL per well, at the following densities: BT474 15,000 cells/well, LNCaP 5,000 cells/well and HFF 5,000 cells/well. 10 mM stocks of compounds in DMSO were serially diluted in DMSO through nine 3-fold dilutions in 96-well plates (Costar Corning 3363), and stored at −80 C. The next day, compound dilutions were thawed and 4 uL of each transferred to 662 uL RPMI 1640+100 ug/mL gentamicin, resulting in twice the final required test concentrations. 100 uL of compounds diluted in RPMI 1640 were added to all cell lines. The final concentration of DMSO in all wells, including controls, was 0.3%. Cells were incubated at 37 C, 5% CO2 for 3 days. Medium was removed by aspiration. Cell biomass was estimated by staining cells with 80 uL methylene blue (Sigma M9140, 0.5% in 50:50 ethanol:water), and incubating at room temperature for 1 hour. Stain was aspirated and the plates rinsed by immersion in water, then air-dried. Stain was released from cells by adding 100 uL of solubilizing solution (1% N-lauroyl sarcosine, sodium salt, Sigma L5125, in PBS) and incubating at room temperature for at least 30 minutes. Plates were shaken and the optical density at 620 nm was measured on a microplate reader. Percent inhibition of cell growth was calculated relative to vehicle-treated control wells. Concentration of compound that inhibits 50% of cell growth (IC50) was interpolated using non-linear regression (Levenberg-Marquadt) and the equation, y=Vmax*(1−(x̂n/K̂n+x̂n)))+Y2. [Ref: Mager, M. E. (1972) Data Analysis in Biochemistry and Biophysics. New York: Academic Press]

[2] = system: LNCaP (lymph node metastasis of prostate cancer); test: Methylene Blue Growth Inhibition assay, LNCaP; assay type: cell-based; conditions: Homo sapiens, 72 h, 3 days
Procedure: as §1, §2

[3] = Solubility in 50 mM phosphate buffer at pH 7.4; assay type: physicochemical; conditions: for solubility: 50 mM phosphate buffer, pH 7.4, aqueous buffer; for Solubility (statement in words): suitability for IV dosage forms, solubility in water
[4] = system: BT474 (human breast carcinoma); test: Methylene Blue Growth Inhibition assay, BT474; assay type: cell-based; conditions: BT-474, 72 h, BT474, 3 days
Procedure: as §1, §2

FL AKT1 = FL AKT1 (Homo sapiens, UniProt P31749); test: Full-length AKT enzyme assay (substrate phosphorylation, SPA); assay type: biochemical; conditions: 4 uM ATP
FL AKT1, sequence (P31749 whole entry): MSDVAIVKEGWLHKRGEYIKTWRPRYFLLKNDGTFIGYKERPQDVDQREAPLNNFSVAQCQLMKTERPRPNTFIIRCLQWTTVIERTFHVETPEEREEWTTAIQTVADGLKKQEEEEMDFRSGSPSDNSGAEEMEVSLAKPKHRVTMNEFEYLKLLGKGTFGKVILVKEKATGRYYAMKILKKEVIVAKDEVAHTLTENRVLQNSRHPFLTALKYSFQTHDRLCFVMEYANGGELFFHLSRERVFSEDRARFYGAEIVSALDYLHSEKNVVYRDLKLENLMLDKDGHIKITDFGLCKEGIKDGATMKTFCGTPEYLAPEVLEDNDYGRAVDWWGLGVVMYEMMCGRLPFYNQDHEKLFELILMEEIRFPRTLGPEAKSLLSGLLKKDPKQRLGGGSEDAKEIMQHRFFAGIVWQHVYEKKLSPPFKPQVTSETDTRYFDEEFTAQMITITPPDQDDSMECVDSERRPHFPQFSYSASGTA

FL AKT2 = target: T1, FL AKT2 (Homo sapiens, UniProt P31751); test: as above; assay type: biochemical; conditions: 4 uM ATP
T1 construct: 0.008 uM, FL AKT2 in the above full-length AKT enzyme assay
T1 sequence (P31751 whole entry): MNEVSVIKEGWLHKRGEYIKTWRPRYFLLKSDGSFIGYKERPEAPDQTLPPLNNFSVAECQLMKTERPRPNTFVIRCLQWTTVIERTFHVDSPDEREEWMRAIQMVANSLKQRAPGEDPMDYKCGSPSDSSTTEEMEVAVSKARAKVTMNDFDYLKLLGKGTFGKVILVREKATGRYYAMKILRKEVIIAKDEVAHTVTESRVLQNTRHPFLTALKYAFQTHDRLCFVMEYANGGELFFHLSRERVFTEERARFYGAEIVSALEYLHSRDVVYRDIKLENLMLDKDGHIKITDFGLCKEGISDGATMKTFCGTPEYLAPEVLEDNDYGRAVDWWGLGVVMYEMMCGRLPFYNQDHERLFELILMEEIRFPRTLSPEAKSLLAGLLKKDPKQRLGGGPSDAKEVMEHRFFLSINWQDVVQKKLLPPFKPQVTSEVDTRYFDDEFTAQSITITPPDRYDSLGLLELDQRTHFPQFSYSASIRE

SMILES | IC50 [1] [µM] | IC50 [2] [nM] | solubility [3] [µM] | IC50 [4] [nM] | Solubility (statement in words) [3] | IC50 (FL AKT1) [nM] | IC50 (FL AKT2) [nM]
CCn1c(-c2nonc2N)nc2c(-c3ccccc3)ncc(OCC3CCCNC3)c21.O=C(O)C(F)(F)F (stereo not shown) [Compound V, 4-{1-ethyl-4-phenyl-7-[(3-piperidinylmethyl)oxy]-1H-imidazo-[4,5-c]pyridin-2-yl}-1,2,5-oxadiazol-3-amine trifluoroacetate] | 0.57 | 1640 | 9 | 1870 |  |  | 
CCn1c(-c2nonc2N)nc2c(C#CC(C)(C)O)ncc(OCC3CCNCC3)c21.O=C(O)C(F)(F)F [Compound Y, 4-{2-(4-amino-1,2,5-oxadiazol-3-yl)-1-ethyl-7-[(4-piperidinylmethyl)oxy]-1H-imidazo[4,5-c]pyridin-4-yl}-2-methyl-3-butyn-2-ol trifluoroacetate] | > 30 | 217 | 159 | 2590 |  |  | 
CCn1c(-c2nonc2N)nc2c(C#CC(C)(C)O)ncc(OCCCN)c21.O=C(O)C(F)(F)F [Compound X, 4-{2-(4-amino-1,2,5-oxadiazol-3-yl)-7-[(3-aminopropyl)oxy]-1-ethyl-1H-imidazo[4,5-c]pyridin-4-yl}-2-methyl-3-butyn-2-ol trifluoroacetate] | 18.1 | 258 | 173 | 241 |  |  | 
CCn1c(-c2nonc2N)nc2c(C#CC(C)(C)O)ncc(OCCCCN)c21.O=C(O)C(F)(F)F [Compound W, 4-[7-[(4-aminobutyl)oxy]-2-(4-amino-1,2,5-oxadiazol-3-yl)-1-ethyl-1H-imidazo[4,5-c]pyridin-4-yl}-2-methyl-3-butyn-2-ol trifluoroacetate] | 22.1 | 836 | 210 | 8210 |  |  | 
CCn1c(-c2nonc2N)nc2c(C#CC(C)(C)O)ncc(OCCC3CSCCN3)c21 (stereo not shown) [Example 3, 4-(2-(4-amino-1,2,5-oxadiazol-3-yl)-1-ethyl-7-{[2-(3-thiomorpholinyl)ethyl]oxy}-1H-imidazo[4,5-c]pyridin-4-yl)-2-methyl-3-butyn-2-ol] | 3.59 | 7 | 7 (≈ 3.2 µg/mL) | 26 | suitable for formulation into dosage forms for IV administration |  | 
CCn1c(-c2nonc2N)nc2c(C#CC(C)(C)O)ncc(OCC[C@@H]3CCCN3)c21 [Example 1, 4-[2-(4-amino-1,2,5-oxadiazol-3-yl)-1-ethyl-7-({2-[(2S)-2-pyrrolidinyl]ethyl}oxy)-1H-imidazo[4,5-c]pyridin-4-yl]-2-methyl-3-butyn-2-ol] | 12.6 | 52 | 222 (≈ 94.5 µg/mL) | 176 | suitable for formulation into dosage forms for IV administration | 2 | 8
CCn1c(-c2nonc2N)nc2c(C#CC(C)(C)O)ncc(OCCCNCCc3ccc(OC)cc3)c21 [Compound Z, 4-(2-(4-amino-1,2,5-oxadiazol-3-yl)-1-ethyl-7-{[3-({2-[4-(methyloxy)phenyl]ethyl}amino)propyl]oxy}-1H-imidazo[4,5-c]pyridin-4-yl)-2-methyl-3-butyn-2-ol] | 5.51 | 48 | 37 (≈ 19.2 µg/mL) | 266 |  |  | 
CCn1c(-c2nonc2N)nc2c(-c3ccccc3)ncc(OCCCN3CCOCC3)c21 [Compound R, 4-(1-ethyl-7-{[3-(4-morpholinyl)propyl]oxy}-4-phenyl-1H-imidazo[4,5-c]pyridin-2-yl)-1,2,5-oxadiazol-3-amine trifluoroacetate] | 19.9 | 1420 |  | 17700 |  |  | 
CCn1c(-c2nonc2N)nc2c(C#CC(C)(C)O)ncc(OCC[C@@H]3CCCCN3)c21 [Example 2, 4-[2-(4-amino-1,2,5-oxadiazol-3-yl)-1-ethyl-7-({2-[(2S)-2-Piperidinyl]ethyl}oxy)-1H-imidazo[4,5-c]pyridin-4-yl]-2-methyl-3-butyn-2-ol] | 14.2 | 65 | 200 (≈ 87.9 µg/mL) | 255 | suitable for formulation into dosage forms for IV administration |  | 
CCn1c(-c2nonc2N)nc2c(-c3ccccc3)ncc(OCCN3CCOCC3)c21 [Compound T, 4-(1-ethyl-7-{[2-(4-morpholinyl)ethyl]oxy}-4-phenyl-1H-imidazo[4,5-c]pyridin-2-yl)-1,2,5-oxadiazol-3-amine trifluoroacetate] | 18.9 | > 30000 |  | > 30000 |  |  | 
CCn1c(-c2nonc2N)nc2cncc(OC3CCNCC3)c21.O=C(O)C(F)(F)F [Compound U, 4-[1-ethyl-7-(piperidin-4-yloxy)-1H-imidazo[4,5-c]pyridine-2-yl]-furazan-3-ylamine trifluoroacetate] | 6.47 |  | 200 | 4510 |  |  | 
CCn1c(-c2nonc2N)nc2c(-c3ccccc3)ncc(OCC(O)CN3CCOCC3)c21 (stereo not shown) [Compound S, 1-{[2-(4-amino-1,2,5-oxadiazol-3-yl)-1-ethyl-4-phenyl-1H-imidazo[4,5-c]pyridin-7-yl]oxy}-3-(4-morpholinyl)-2-propanol trifluoroacetate] | > 30 | 7770 |  | > 30000 |  |  | 
